According to PubChem BioAssay AID504328 (The Scripps Research Institute Molecular Screening Center, 2011):
Active and inactive are the calls of the source.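 How the source made its calls: active means EC50 at or below 10 µM; inactive means EC50 above 10 µM.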

Molecular target: Caspase-3 (Homo sapiens) (UniProt P42574)
Assay: procaspase-3 activation potency of dual hits, dose response, counter-screen for dual procaspase-3/7 activator project, biochemical, absorbance, PC-3 D3A mutant (AID 504328)
Conditions: recombinant PC-3 D3A, Ac-DEVD-pNA absorbance 405 nm

Caspase-3 (Homo sapiens), sequence (P42574 whole entry D9A/D28A/D175A): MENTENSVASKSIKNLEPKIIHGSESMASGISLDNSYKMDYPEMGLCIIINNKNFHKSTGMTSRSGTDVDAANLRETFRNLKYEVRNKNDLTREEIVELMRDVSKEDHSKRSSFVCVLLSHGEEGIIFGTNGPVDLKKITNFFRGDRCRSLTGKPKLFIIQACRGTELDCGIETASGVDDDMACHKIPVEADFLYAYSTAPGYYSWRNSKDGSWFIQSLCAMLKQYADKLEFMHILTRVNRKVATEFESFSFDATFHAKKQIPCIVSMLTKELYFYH

EC50: > 85.3 µM (inactive)
Structure (SMILES): CCOc1ccc(N=CC2=C(O)CC(c3ccco3)CC2=O)cc1 (stereo unspecified)
